In US20230233569A1 (Revolution Medicines, Inc., priority 2020, published 2023):

Tests used:
[1] = target: KRAS G12C (Homo sapiens, UniProt P01116+P62937, G12C); assay: Ras-Raf disruption / FRET / MOA assay (BRAF RBD); assay type: biochemical; conditions: KRAS G12C FRET data IC50, Ras-Raf disruption, with Cyclophilin A
Method in brief: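 His6-K-Ras G12C-GMPPNP (12.5 nM), GST-BRAF RBD (50 nM) and tagless Cyclophilin A (25 μM) incubated 3 h at 25 °C with compound (10-point 3-fold series from 30 μM), pH 7.3 HEPES buffer. Anti-His Eu/anti-GST APC added for 1.5 h; decreased TR-FRET ratio vs DMSO gives IC50.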

[2] = tested on: AsPC-1 (K-Ras G12D); assay: Potency assay: pERK; assay type: cell-based; conditions: Homo sapiens, ASPC1, read-out: pERK EC50
[3] = tested on: NCI-H358 (K-Ras G12C); assay: CellTiter-Glo cell viability assay; assay type: cell-based; conditions: Homo sapiens, NCI-H358, 120 h, read-out: H358 Cell Viability assay data IC50, K-Ras G12C, 5-day treatment
Method in brief: (§1)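 Compounds dispensed directly onto seeded AsPC-1 (K-Ras G12D) or NCI-H358 (K-Ras G12C) cells; CellTiter-Glo luminescence read on day 5 after ~30 min equilibration to room temperature. Signal normalized to DMSO average (%) and fit by four-parameter logistic.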

[4] = tested on: AsPC-1 (K-Ras G12D); assay: CellTiter-Glo cell viability assay; assay type: cell-based; conditions: Homo sapiens, ASPC1, 120 h, read-out: AsPC-1 Cell Viability assay data IC50, K-Ras G12D, 5-day treatment
Method in brief: as §1

[5] = target: KRAS G12D (Homo sapiens, UniProt P01116+P62937, G12D); assay: Ras-Raf disruption / FRET / MOA assay (BRAF RBD); assay type: biochemical; conditions: KRAS G12D FRET data IC50, Ras-Raf disruption, with Cyclophilin A
Chain of KRAS G12D (P01116 1-169 isoform P01116-2 G12D limits assumed): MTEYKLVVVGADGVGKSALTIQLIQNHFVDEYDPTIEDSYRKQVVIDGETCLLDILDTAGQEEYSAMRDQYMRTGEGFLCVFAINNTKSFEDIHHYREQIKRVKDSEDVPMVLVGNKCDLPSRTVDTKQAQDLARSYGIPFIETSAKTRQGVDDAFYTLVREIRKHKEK
Chain of KRAS G12D (P62937 whole entry): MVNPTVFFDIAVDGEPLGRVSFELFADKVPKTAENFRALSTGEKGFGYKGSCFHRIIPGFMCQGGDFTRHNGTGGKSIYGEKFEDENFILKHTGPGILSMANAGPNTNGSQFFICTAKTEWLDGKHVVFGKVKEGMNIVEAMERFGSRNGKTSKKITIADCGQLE
Method in brief: (§2)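 TR-FRET in 25 mM HEPES pH 7.3, 100 mM NaCl, 5 mM MgCl2, 0.1% BSA, 0.002% Tween20 with 25 μM Cyclophilin A, 12.5 nM His6-Ras-GMPPNP, 50 nM GST-BRAF RBD; compound 10-point 3-fold series from 30 μM. After 3 h at 25 °C, Eu anti-His/APC anti-GST added for 1.5 h; IC50 from ratio decrease versus DMSO.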

[6] = target: KRAS WT (Homo sapiens, UniProt P01116+P62937); assay: Ras-Raf disruption / FRET / MOA assay (BRAF RBD); assay type: biochemical; conditions: KRAS WT FRET data IC50, Ras-Raf disruption, with Cyclophilin A
Chain of KRAS WT (P01116 1-169 isoform P01116-2 limits assumed): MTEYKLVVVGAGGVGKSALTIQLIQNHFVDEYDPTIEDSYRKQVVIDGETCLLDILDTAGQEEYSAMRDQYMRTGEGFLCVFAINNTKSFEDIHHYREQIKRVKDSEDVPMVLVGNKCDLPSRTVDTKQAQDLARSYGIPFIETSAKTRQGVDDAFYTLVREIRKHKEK
Chain of KRAS WT (P62937 whole entry): as the sequence (P62937 whole entry) above
Method in brief: as §2

[7] = target: KRAS G12S (Homo sapiens, UniProt P01116+P62937, G12S); assay: Ras-Raf disruption / FRET / MOA assay (BRAF RBD); assay type: biochemical; conditions: KRAS G12S FRET data IC50, Ras-Raf disruption, with Cyclophilin A
Chain of KRAS G12S (P01116 1-169 isoform P01116-2 G12S limits assumed): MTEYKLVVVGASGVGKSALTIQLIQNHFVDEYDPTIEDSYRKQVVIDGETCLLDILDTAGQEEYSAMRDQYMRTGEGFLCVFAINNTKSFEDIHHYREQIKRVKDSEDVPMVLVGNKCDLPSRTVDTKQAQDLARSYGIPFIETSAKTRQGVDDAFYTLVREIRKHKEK
Chain of KRAS G12S (P62937 whole entry): as the sequence (P62937 whole entry) above
Method in brief: as §2

[8] = target: NRAS G12C (Homo sapiens, UniProt P01111+P62937, G12C); assay: Ras-Raf disruption / FRET / MOA assay (BRAF RBD); assay type: biochemical; conditions: NRAS G12C FRET data IC50, NRAS G12C
Chain of NRAS G12C (P01111 whole entry G12C): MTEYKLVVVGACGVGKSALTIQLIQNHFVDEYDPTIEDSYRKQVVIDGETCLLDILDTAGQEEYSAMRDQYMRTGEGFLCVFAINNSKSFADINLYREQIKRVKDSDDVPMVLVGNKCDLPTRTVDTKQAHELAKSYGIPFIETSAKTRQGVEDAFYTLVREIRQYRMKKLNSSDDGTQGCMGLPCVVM
Chain of NRAS G12C (P62937 whole entry): as the sequence (P62937 whole entry) above
Method in brief: as §2

[9] = target: KRAS G13D (Homo sapiens, UniProt P01116+P62937, G13D); assay: Ras-Raf disruption / FRET / MOA assay (BRAF RBD); assay type: biochemical; conditions: KRAS G13D FRET data IC50, Ras-Raf disruption, with Cyclophilin A
Chain of KRAS G13D (P01116 1-169 isoform P01116-2 G13D limits assumed): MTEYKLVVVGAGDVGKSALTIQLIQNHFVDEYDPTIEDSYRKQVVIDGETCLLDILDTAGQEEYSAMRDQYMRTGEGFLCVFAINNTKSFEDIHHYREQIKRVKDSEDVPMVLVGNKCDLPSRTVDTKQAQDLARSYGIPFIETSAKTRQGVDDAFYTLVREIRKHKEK
Chain of KRAS G13D (P62937 whole entry): as the sequence (P62937 whole entry) above
Method in brief: as §2

[10] = target: KRAS G12V (Homo sapiens, UniProt P01116+P62937, G12V); assay: Ras-Raf disruption / FRET / MOA assay (BRAF RBD); assay type: biochemical; conditions: KRAS G12V FRET data IC50, Ras-Raf disruption, with Cyclophilin A
Chain of KRAS G12V (P01116 1-169 isoform P01116-2 G12V limits assumed): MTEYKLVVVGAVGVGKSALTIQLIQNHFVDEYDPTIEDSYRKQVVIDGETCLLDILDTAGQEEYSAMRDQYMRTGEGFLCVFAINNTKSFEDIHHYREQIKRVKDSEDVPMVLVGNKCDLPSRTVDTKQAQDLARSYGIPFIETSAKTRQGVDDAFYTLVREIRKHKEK
Chain of KRAS G12V (P62937 whole entry): as the sequence (P62937 whole entry) above
Method in brief: as §2

[11] = target: KRAS G13C (Homo sapiens, UniProt P01116+P62937, G13C); assay: Ras-Raf disruption / FRET / MOA assay (BRAF RBD); assay type: biochemical; conditions: KRAS G13C FRET data IC50, Ras-Raf disruption, with Cyclophilin A
Chain of KRAS G13C (P01116 1-169 isoform P01116-2 G13C limits assumed): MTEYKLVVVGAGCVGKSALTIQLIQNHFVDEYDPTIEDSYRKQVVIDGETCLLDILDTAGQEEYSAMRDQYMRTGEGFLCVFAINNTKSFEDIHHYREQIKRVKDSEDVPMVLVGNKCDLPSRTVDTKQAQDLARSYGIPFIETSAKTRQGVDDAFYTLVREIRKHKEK
Chain of KRAS G13C (P62937 whole entry): as the sequence (P62937 whole entry) above
Method in brief: as §2

Chain of KRAS G12C (P01116 1-169 isoform P01116-2 G12C limits assumed): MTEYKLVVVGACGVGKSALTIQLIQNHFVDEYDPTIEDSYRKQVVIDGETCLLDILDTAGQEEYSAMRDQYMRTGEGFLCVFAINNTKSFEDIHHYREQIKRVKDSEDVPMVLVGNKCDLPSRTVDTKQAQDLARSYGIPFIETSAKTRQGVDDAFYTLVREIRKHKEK
Chain of KRAS G12C (P62937 whole entry): as the sequence (P62937 whole entry) above

Compound | IC50 [1] | EC50 [2] | IC50 [3] | IC50 [4] | IC50 [5] | IC50 [6] | IC50 [7] | IC50 [8] | IC50 [9] | IC50 [10] | IC50 [11]
CCn1c(-c2cccnc2[C@H](C)OC)c2c3cc(ccc31)-c1cccc(c1)C[C@H](NC(=O)[C@H](C(C)C)N(C)C(=O)CN(C)C(=O)[C@H]1CN1)C(=O)N1CCC[C@H](N1)C(=O)OCC(C)(C)C2 [Example 107] | 100 to 1000 nM | < 5000 nM | 100 to 1000 nM | 1000 to 10000 nM | 1000 to 10000 nM | 1000 to 10000 nM | 1000 to 10000 nM | 100 to 1000 nM | 1000 to 10000 nM | 1000 to 10000 nM | 100 to 1000 nM
CCn1c(-c2cccnc2[C@H](C)OC)c2c3cc(ccc31)-c1cc(O)cc(c1)C[C@H](NC(=O)[C@H](C(C)C)N(C)C(=O)CN(C)C(=O)[C@@H]1N[C@@H]1C1CC1)C(=O)N1CCC[C@H](N1)C(=O)OCC(C)(C)C2 [Example 133] | 10 to 100 nM | < 5000 nM | 10 to 100 nM | 10 to 100 nM | 10 to 100 nM | 10 to 100 nM | 10 to 100 nM | 10 to 100 nM | 10 to 100 nM | 10 to 100 nM | 10 to 100 nM
CCn1c(-c2cccnc2[C@H](C)OC)c2c3cc(ccc31)-c1cc(O)cc(c1)C[C@H](NC(=O)[C@H](C(C)C)N(C)C(=O)CN(C)C(=O)[C@@H]1CN1CCCOC)C(=O)N1CCC[C@H](N1)C(=O)OCC(C)(C)C2 (some centres unmarked) [Example 137] | < 10 nM | < 5000 nM | < 10 nM | 100 to 1000 nM | 10 to 100 nM | 10 to 100 nM | 10 to 100 nM | < 10 nM | 10 to 100 nM | 10 to 100 nM | 10 to 100 nM
CCn1c(-c2cccnc2[C@H](C)OC)c2c3cc(ccc31)-c1cc(O)cc(c1)C[C@H](NC(=O)[C@H](C(C)C)N(C)C(=O)CN(C)C(=O)[C@H]1CN1C(C)C)C(=O)N1CCC[C@H](N1)C(=O)OCC(C)(C)C2 (some centres unmarked) [Example 142] | < 10 nM | < 5000 nM | < 10 nM | 100 to 1000 nM | 100 to 1000 nM | 100 to 1000 nM | 10 to 100 nM | < 10 nM | 100 to 1000 nM | 100 to 1000 nM | 10 to 100 nM
CCn1c(-c2cccnc2[C@H](C)OC)c2c3cc(ccc31)-c1cc(O)cc(c1)C[C@H](NC(=O)[C@H](C(C)C)N(C)C(=O)CN(C)C(=O)[C@@H]1CN1C(C)C)C(=O)N1CCC[C@H](N1)C(=O)OCC(C)(C)C2 (some centres unmarked) [Example 148] | < 10 nM | < 5000 nM | < 10 nM | 100 to 1000 nM | 10 to 100 nM | 10 to 100 nM | 10 to 100 nM | < 10 nM | 10 to 100 nM | 10 to 100 nM | 10 to 100 nM
CCn1c(-c2cccnc2[C@H](C)OC)c2c3cc(ccc31)-c1cc(O)cc(c1)C[C@H](NC(=O)[C@H](C(C)C)N(C)C(=O)CN(C)C(=O)[C@H]1CN1Cc1ccccc1F)C(=O)N1CCC[C@H](N1)C(=O)OCC(C)(C)C2 (some centres unmarked) [Example 155] | 10 to 100 nM | < 5000 nM | < 10 nM | 100 to 1000 nM | 100 to 1000 nM | 10 to 100 nM | 10 to 100 nM | < 10 nM | 100 to 1000 nM | 10 to 100 nM | 10 to 100 nM
CCn1c(-c2cccnc2[C@H](C)OC)c2c3cc(ccc31)-c1cc(O)cc(c1)C[C@H](NC(=O)[C@H](C(C)C)N(C)C(=O)CN(C)C(=O)[C@H]1CN1Cc1ccccc1CO)C(=O)N1CCC[C@H](N1)C(=O)OCC(C)(C)C2 (some centres unmarked) [Example 156] | < 10 nM | < 5000 nM | < 10 nM | 100 to 1000 nM | 100 to 1000 nM | 10 to 100 nM | 10 to 100 nM | < 10 nM | 100 to 1000 nM | 10 to 100 nM | 10 to 100 nM
